Experiments:
bedstraw = test: Test B pre/postemergence bedstraw; format: in vivo, Galium aparine
Summary of the method: (§1)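 Test chemicals in a non-phytotoxic solvent mixture with surfactant were sprayed preemergence onto planted seeds and postemergence onto plants 2 to 18 cm tall (1- to 4-leaf stage). After twelve to sixteen days in a greenhouse, injury was visually rated against untreated controls from 0 (no effect) to 10 (complete control).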

blackgrass = test: Test B pre/postemergence blackgrass; format: in vivo, Alopecurus myosuroides
Summary of the method: as §1

surinam grass = test: Test B pre/postemergence surinam grass; format: in vivo, Brachiaria decumbens
Summary of the method: as §1

cocklebur = test: Test B pre/postemergence cocklebur; format: in vivo, Xanthium strumarium
Summary of the method: as §1

corn = test: Test B pre/postemergence corn; format: in vivo, Zea mays
Summary of the method: as §1

giant foxtail = test: Test B pre/postemergence giant foxtail; format: in vivo, Setaria faberii
Summary of the method: as §1

morningglory = test: Test B pre/postemergence morningglory; format: in vivo, Ipomoea hederacea
Summary of the method: as §1

pigweed = test: Test B pre/postemergence pigweed; format: in vivo, Amaranthus retroflexus
Summary of the method: as §1

rape = test: Test B pre/postemergence rape; format: in vivo, Brassica napus
Summary of the method: as §1

soybean = test: Test B pre/postemergence soybean; format: in vivo, Glycine max
Summary of the method: as §1

sugar beet = test: Test B pre/postemergence sugar beet; format: in vivo, Beta vulgaris
Summary of the method: as §1

velvetleaf = test: Test B pre/postemergence velvetleaf; format: in vivo, Abutilon theophrasti
Summary of the method: as §1

wheat = test: Test B pre/postemergence wheat; format: in vivo, Triticum aestivum
Summary of the method: as §1

wild oat = test: Test B pre/postemergence wild oat; format: in vivo, Avena fatua
Summary of the method: as §1

rice = test: Test B flood test rice; format: in vivo, Oryza sativa; conditions: Pre-emergence
Summary of the method: (§2)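 Plants were grown to the 2-leaf stage before treatment with test chemical, then held in a greenhouse for twelve to sixteen days. Injury was visually rated against untreated controls on a 0–10 scale, where 0 is no effect and 10 is complete control.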

smallflower flatsedge = test: Test B flood test smallflower flatsedge; format: in vivo, Cyperus difformis; conditions: Pre-emergence
Summary of the method: as §2

[1] = Preemergence, Rate 62 g/ha, scale of 0 to 10 where 0 is no effect and 10 is complete control
[2] = Preemergence, Rate 250 g/ha, scale of 0 to 10 where 0 is no effect and 10 is complete control
[3] = Preemergence, Rate 500 g/ha, scale of 0 to 10 where 0 is no effect and 10 is complete control
[4] = Rate 62 g/ha, Postemergence, scale 0 to 10, 0 no effect, 10 complete control
[5] = Rate 125 g/ha, Postemergence, scale of 0 to 10 where 0 is no effect and 10 is complete control
[6] = Rate 250 g/ha, Postemergence, scale of 0 to 10 where 0 is no effect and 10 is complete control
[7] = Rate 500 g/ha, Postemergence, scale 0 to 10, 0 no effect, 10 complete control
[8] = Rate 1000 g/ha, scale 0 to 10 (0 no effect, 10 complete control)
[9] = Rate 125 g/ha, flood test species, scale 0 to 10 where 0 is no effect and 10 is complete control
[10] = Rate 250 g/ha, flood-test species, scale 0 to 10, 0 is no effect, 10 is complete control
[11] = Rate 500 g/ha, flood test species, scale 0 to 10 (0 no effect, 10 complete control)

## Cc1ccccc1-n1c(=O)on(C(=O)N(c2ccc3ccccc3c2)C(C)C)c1=O [Compound 306]
bedstraw; [1]
  Bedstraw plant response rating: 0
bedstraw; Preemergence, Rate 125 g/ha
  Bedstraw plant response rating (0 to 10 scale): 0
bedstraw; [2]
  Bedstraw plant response rating: 0
bedstraw; [3]
  Bedstraw plant response rating: 0
bedstraw; [4]
  Bedstraw plant response rating: 0
bedstraw; [5]
  Bedstraw plant response rating: 0
bedstraw; [6]
  Plant response rating, Bedstraw: 0
bedstraw; [7]
  Bedstraw plant response rating: 0
blackgrass; [1]
  Blackgrass plant response rating: 0
blackgrass; Preemergence, Rate 125 g/ha
  Blackgrass plant response rating (0 to 10 scale): 0
blackgrass; [2]
  Blackgrass plant response rating: 0
blackgrass; [3]
  Blackgrass plant response rating: 0
blackgrass; [4]
  Blackgrass plant response rating: 0
blackgrass; [5]
  Blackgrass plant response rating: 0
blackgrass; [6]
  Plant response rating, Blackgrass: 0
blackgrass; [7]
  Blackgrass plant response rating: 0
Surinam grass; [1]
  B. signalgrass plant response rating: 0
Surinam grass; Preemergence, Rate 125 g/ha
  B. signalgrass plant response rating (0 to 10 scale, 0 is no effect, 10 is complete control): 0
Surinam grass; [2]
  B. signalgrass plant response rating: 0
Surinam grass; [3]
  B. signalgrass plant response rating: 0
Surinam grass; [4]
  B. signalgrass plant response rating: 0
Surinam grass; [5]
  B. signalgrass plant response rating: 0
Surinam grass; [6]
  Plant response rating, B. signalgrass: 0
Surinam grass; [7]
  B. signalgrass plant response rating: 0
cocklebur; [1]
  Cocklebur plant response rating: 0
cocklebur; Preemergence, Rate 125 g/ha
  Cocklebur plant response rating (0 to 10 scale): 0
cocklebur; [2]
  Cocklebur plant response rating: 0
cocklebur; [3]
  Cocklebur plant response rating: 0
cocklebur; [4]
  Cocklebur plant response rating: 0
cocklebur; [5]
  Cocklebur plant response rating: 0
cocklebur; [6]
  Plant response rating, Cocklebur: 0
cocklebur; [7]
  Cocklebur plant response rating: 0
corn; [1]
  Corn plant response rating: 0
corn; Preemergence, Rate 125 g/ha
  Corn plant response rating (0 to 10 scale): 0
corn; [2]
  Corn plant response rating: 0
corn; [3]
  Corn plant response rating: 0
corn; [4]
  Corn plant response rating: 0
corn; [5]
  Corn plant response rating: 0
corn; [6]
  Plant response rating, Corn: 0
corn; [7]
  Corn plant response rating: 0
Giant foxtail; [1]
  Giant foxtail plant response rating: 2
Giant foxtail; Preemergence, Rate 125 g/ha
  Giant foxtail plant response rating (0 to 10 scale): 2
Giant foxtail; [2]
  Giant foxtail plant response rating: 8
Giant foxtail; [3]
  Giant foxtail plant response rating: 9
Giant foxtail; [4]
  Giant foxtail plant response rating: 0
Giant foxtail; [5]
  Giant foxtail plant response rating: 0
Giant foxtail; [6]
  Plant response rating, Giant foxtail: 0
morningglory; [1]
  Morningglory plant response rating: 0
morningglory; Preemergence, Rate 125 g/ha
  Morningglory plant response rating (0 to 10 scale): 0
morningglory; [2]
  Morningglory plant response rating: 0
morningglory; [3]
  Morningglory plant response rating: 0
morningglory; [4]
  Morningglory plant response rating: 2
morningglory; [5]
  Morningglory plant response rating: 2
pigweed; [1]
  Redroot pigweed plant response rating: 0
pigweed; Preemergence, Rate 125 g/ha
  Redroot pigweed plant response rating (0 to 10 scale): 0
pigweed; [2]
  Redroot pigweed plant response rating: 0
pigweed; [3]
  Redroot pigweed plant response rating: 0
pigweed; [4]
  Redroot pigweed plant response rating: 0
pigweed; [5]
  Redroot pigweed plant response rating: 0
pigweed; [6]
  Plant response rating, Redroot pigweed: 0
rape; [1]
  Rape plant response rating: 0
rape; Preemergence, Rate 125 g/ha
  Rape plant response rating (0 to 10 scale): 0
rape; [2]
  Rape plant response rating: 0
rape; [3]
  Rape plant response rating: 0
rape; [4]
  Rape plant response rating: 0
rape; [5]
  Rape plant response rating: 0
rape; [6]
  Plant response rating, Rape: 0
soybean; [1]
  Soybean plant response rating: 0
soybean; Preemergence, Rate 125 g/ha
  Soybean plant response rating (0 to 10 scale): 0
soybean; [2]
  Soybean plant response rating: 0
soybean; [3]
  Soybean plant response rating: 0
soybean; [4]
  Soybean plant response rating: 1
soybean; [5]
  Soybean plant response rating: 2
soybean; [6]
  Plant response rating, Soybean: 2
Sugar beet; [1]
  Sugarbeets plant response rating: 0
Sugar beet; Preemergence, Rate 125 g/ha
  Sugarbeets plant response rating (0 to 10 scale): 0
Sugar beet; [2]
  Sugarbeets plant response rating: 0
Sugar beet; [3]
  Sugarbeets plant response rating: 0
Sugar beet; [4]
  Sugarbeets plant response rating: 0
Sugar beet; [5]
  Sugarbeets plant response rating: 0
Sugar beet; [6]
  Plant response rating, Sugarbeets: 0
velvetleaf; [1]
  Velvetleaf plant response rating: 0
velvetleaf; Preemergence, Rate 125 g/ha
  Velvetleaf plant response rating (0 to 10 scale): 0
velvetleaf; [2]
  Velvetleaf plant response rating: 0
velvetleaf; [3]
  Velvetleaf plant response rating: 0
velvetleaf; [4]
  Velvetleaf plant response rating: 0
velvetleaf; [5]
  Velvetleaf plant response rating: 0
velvetleaf; [6]
  Plant response rating, Velvetleaf: 0
wheat; [1]
  Wheat plant response rating: 0
wheat; Preemergence, Rate 125 g/ha
  Wheat plant response rating (0 to 10 scale): 0
wheat; [2]
  Wheat plant response rating: 0
wheat; [3]
  Wheat plant response rating: 0
wheat; [4]
  Wheat plant response rating: 0
wheat; [5]
  Wheat plant response rating: 0
wheat; [6]
  Plant response rating, Wheat: 0
Wild oat; [1]
  Wild oats plant response rating: 0
Wild oat; Preemergence, Rate 125 g/ha
  Wild oats plant response rating (0 to 10 scale): 0
Wild oat; [2]
  Wild oats plant response rating: 0
Wild oat; [3]
  Wild oats plant response rating: 0
Wild oat; [4]
  Wild oats plant response rating: 0
Wild oat; [5]
  Wild oats plant response rating: 0
Wild oat; [6]
  Plant response rating, Wild oats: 0
rice; [8]
  Rice plant response rating: 0
rice; [9]
  Rice plant response rating: 0
rice; [10]
  Rice plant response rating: 0
rice; [11]
  Rice plant response rating: 0
Smallflower flatsedge; [8]
  S. Flatsedge plant response rating: 0
Smallflower flatsedge; [9]
  S. Flatsedge plant response rating: 0
Smallflower flatsedge; [10]
  S. Flatsedge plant response rating: 0
Smallflower flatsedge; [11]
  S. Flatsedge plant response rating: 0
